Laboratory results from patent publication US7087642B2 (priority 1999, dated 2006).
Read-outs that look alike come from different tables or passages of the source.

Experiments:
human PBMC T cells = assay: cells; assay type: cell-based; conditions: read-out: T-cells (IC50)
IMPDH human type II = IMPDH human type II (Homo sapiens, UniProt P12268); assay: biochemical
human PBMC B cells = assay: cells; assay type: cell-based; conditions: read-out: B-cells (IC50)

Structure (SMILES) | IC50 (human PBMC T cells; Homo sapiens, 72 h) [nM] | Ki (IMPDH human type II; read-out: Ki) [nM] | IC50 (human PBMC B cells; Homo sapiens, 72 h) [nM] | IC50 (human PBMC T cells) [nM] | IC50 (human PBMC B cells) [nM] | Ki (IMPDH human type II) [nM]
COc1cc(NC(=O)Nc2cccc(CNC(=O)OC[C@H](CC#N)N(C)C)c2)ccc1-c1cnco1 [Compound 6] | 100 to 1000 | < 10 | 100 to 1000 | – | – | –
COc1cc(NC(=O)Nc2cccc(CNC(=O)O[C@H](C)CC#N)c2)ccc1-c1cnco1 [Compound 29] | – | < 10 | – | < 100 | < 100 | –
CCOc1cc(NC(=O)Nc2cccc([C@H](C)NC(=O)O[C@H](CC)CC#N)c2)ccc1C#N [Compound 182] | > 1000 | > 50 | 100 to 1000 | – | – | –
CCN(CC)C[C@H](OC(=O)NCc1cccc(NC(=O)Nc2ccc(-c3cnco3)c(OC)c2)c1)c1ccccc1 [Compound 66] | > 1000 | < 10 | > 1000 | – | – | –
CCN(CC(C)C)CC(OC(=O)NCc1cccc(NC(=O)Nc2ccc(-c3cnco3)c(OC)c2)c1)c1ccccc1 (stereo not drawn) [Compound 115] | > 1000 | > 50 | > 1000 | – | – | –
COc1cc(NC(=O)Nc2cccc(CNC(=O)O[C@@H](CO)CSC)c2)ccc1-c1cnco1 [Compound 88] | 100 to 1000 | < 10 | 100 to 1000 | – | – | –
CCN(CC)C[C@@H](OC(=O)NCc1cccc(NC(=O)Nc2ccc(-c3cnco3)c(OC)c2)c1)c1ccccc1 [Compound 67] | 100 to 1000 | < 10 | 100 to 1000 | – | – | –
CC[C@H](CO)OC(=O)N[C@@H](C)c1cccc(NC(=O)Nc2ccc(C#N)c(OC)c2)c1 [Compound 180] | 100 to 1000 | 10 to 50 | > 1000 | – | – | –
COc1cc(NC(=O)Nc2cccc(CNC(=O)O[C@@H](CN3CCOCC3)c3ccccc3)c2)ccc1-c1cnco1 [Compound 52] | > 1000 | < 10 | > 1000 | – | – | –
COc1cc(NC(=O)Nc2cccc(CNC(=O)OC[C@@H](CC#N)N(C)C)c2)ccc1-c1cnco1 [Compound 15] | 100 to 1000 | < 10 | 100 to 1000 | – | – | –
COc1cc(NC(=O)Nc2cccc(CNC(=O)O[C@H](CN3CCCCC3)c3ccccc3)c2)ccc1-c1cnco1 [Compound 99] | 100 to 1000 | 10 to 50 | 100 to 1000 | – | – | –
CC[C@@H](CCN(CC)CC)OC(=O)NCc1cccc(NC(=O)Nc2ccc(-c3cnco3)c(OC)c2)c1 [Compound 102] | 100 to 1000 | < 10 | 100 to 1000 | – | – | –
CC[C@@H](CO)OC(=O)NCc1cccc(NC(=O)Nc2ccc(-c3cnco3)c(OC)c2)c1 [Compound 61] | 100 to 1000 | < 10 | 100 to 1000 | – | – | –
COc1cc(NC(=O)Nc2cccc(CNC(=O)OC[C@@H](N)CC#N)c2)ccc1-c1cnco1 [Compound 5] | > 1000 | < 10 | > 1000 | – | – | –
COc1cc(NC(=O)Nc2cccc([C@@H](C)NC(=O)OCCC#N)c2)ccc1C#N [Compound 173] | > 1000 | > 50 | 100 to 1000 | – | – | –
COc1cc(NC(=O)Nc2cccc(CNC(=O)OC(CC#N)C3CC3)c2)ccc1-c1cnco1 (stereo not drawn) [Compound 104] | < 100 | 10 to 50 | < 100 | – | – | –
CC[C@H](CC#N)OC(=O)N[C@@H](C)c1cccc(NC(=O)Nc2ccc(C#N)c(OC)c2)c1 [Compound 169] | < 100 | – | < 100 | – | – | < 10
CCCN(C)CCC(OC(=O)NCc1cccc(NC(=O)Nc2ccc(-c3cnco3)c(OC)c2)c1)c1ccccc1 (stereo not drawn) [Compound 118] | 100 to 1000 | > 50 | 100 to 1000 | – | – | –
CCN(CC)C[C@H](CC#N)OC(=O)NCc1cccc(NC(=O)Nc2ccc(-c3cnco3)c(OC)c2)c1 [Compound 19] | – | < 10 | – | 100 to 1000 | 100 to 1000 | –
CC[C@H](CCO)OC(=O)NCc1cccc(NC(=O)Nc2ccc(-c3cnco3)c(OC)c2)c1 [Compound 68] | – | < 10 | – | 100 to 1000 | 100 to 1000 | –
CCCN(CCC)CC(OC(=O)NCc1cccc(NC(=O)Nc2ccc(-c3cnco3)c(OC)c2)c1)c1ccccc1 (stereo not drawn) [Compound 113] | > 1000 | > 50 | > 1000 | – | – | –
CCCN(CCC(OC(=O)NCc1cccc(NC(=O)Nc2ccc(-c3cnco3)c(OC)c2)c1)c1ccccc1)C(C)C (stereo not drawn) [Compound 107] | 100 to 1000 | > 50 | 100 to 1000 | – | – | –
CCCN(CCC(OC(=O)NCc1cccc(NC(=O)Nc2ccc(-c3cnco3)c(OC)c2)c1)c1ccccc1)CC(C)C (stereo not drawn) [Compound 120] | > 1000 | > 50 | > 1000 | – | – | –
CC[C@@H](CCO)OC(=O)NCc1cccc(NC(=O)Nc2ccc(-c3cnco3)c(OC)c2)c1 [Compound 69] | – | < 10 | – | 100 to 1000 | 100 to 1000 | –
COc1cc(NC(=O)Nc2cccc(CNC(=O)OC(CCO)CCC#N)c2)ccc1-c1cnco1 (stereo not drawn) [Compound 45] | 100 to 1000 | < 10 | 100 to 1000 | – | – | –
COc1cc(NC(=O)Nc2cccc(CNC(=O)OC3COCC3OCC#N)c2)ccc1-c1cnco1 (stereo not drawn) [Compound 76] | – | < 10 | – | < 100 | < 100 | –
CCC(C[N+]1([O-])CCS(=O)(=O)CC1)OC(=O)NCc1cccc(NC(=O)Nc2ccc(-c3cnco3)c(OC)c2)c1 (stereo not drawn) [Compound 91] | > 1000 | < 10 | > 1000 | – | – | –

Structure (SMILES) | IC50 (human PBMC T cells; Homo sapiens, 72 h) [nM] | Ki (IMPDH human type II; read-out: Ki) [nM] | IC50 (human PBMC B cells; Homo sapiens, 72 h) [nM] | IC50 (human PBMC T cells) [nM] | IC50 (human PBMC B cells) [nM] | Ki (IMPDH human type II) [nM]
COc1cc(NC(=O)Nc2cccc(CNC(=O)O[C@H](CCl)CC#N)c2)ccc1-c1cnco1 [Compound 23] | < 100 | < 10 | < 100 | – | – | –
COc1cc(NC(=O)Nc2cccc(CNC(=O)O[C@H](CC#N)CN3CCOCC3)c2)ccc1-c1cnco1 [Compound 18] | – | < 10 | – | > 1000 | > 1000 | –
COc1cc(NC(=O)Nc2cccc(CNC(=O)O[C@H](CO)CCC#N)c2)ccc1-c1cnco1 [Compound 59] | > 1000 | < 10 | 100 to 1000 | – | – | –
COc1cc(NC(=O)Nc2cccc(CNC(=O)OC(CC#N)C(C)(C)C)c2)ccc1-c1cnco1 (stereo not drawn) [Compound 46] | 100 to 1000 | < 10 | 100 to 1000 | – | – | –
COc1cc(NC(=O)Nc2cccc(CNC(=O)OCC(C)(C)CCC#N)c2)ccc1-c1cnco1 [Compound 7] | 100 to 1000 | < 10 | 100 to 1000 | – | – | –
COc1cc(NC(=O)Nc2cccc(CNC(=O)O[C@@H](CO)CCC#N)c2)ccc1-c1cnco1 [Compound 57] | 100 to 1000 | < 10 | 100 to 1000 | – | – | –
COc1cc(NC(=O)Nc2cccc([C@H](C)NC(=O)OCCC#N)c2)ccc1C#N [Compound 170] | 100 to 1000 | < 10 | 100 to 1000 | – | – | –
COc1cc(NC(=O)Nc2cccc(CNC(=O)OC(COC(C)C)CN(CCC#N)CC(C)C)c2)ccc1-c1cnco1 (stereo not drawn) [Compound 11] | > 1000 | < 10 | 100 to 1000 | – | – | –
COc1cc(NC(=O)Nc2cccc(CNC(=O)OCCOCCC#N)c2)ccc1-c1cnco1 [Compound 2] | 100 to 1000 | < 10 | 100 to 1000 | – | – | –
COc1cc(NC(=O)Nc2cccc(CNC(=O)O[C@H](CN3CCCC3)c3ccccc3)c2)ccc1-c1cnco1 [Compound 98] | 100 to 1000 | 10 to 50 | 100 to 1000 | – | – | –
CCC(CN1CC[S+]([O-])CC1)OC(=O)NCc1cccc(NC(=O)Nc2ccc(-c3cnco3)c(OC)c2)c1 (stereo not drawn) [Compound 84] | 100 to 1000 | 10 to 50 | 100 to 1000 | – | – | –
CCC(CCO)OC(=O)NCc1cccc(NC(=O)Nc2ccc(-c3cnco3)c(OC)c2)c1 (stereo not drawn) [Compound 43] | 100 to 1000 | < 10 | 100 to 1000 | – | – | –
COc1cc(NC(=O)Nc2cccc(CNC(=O)OC(CCN(C)C)c3ccccc3)c2)ccc1-c1cnco1 (stereo not drawn) [Compound 35] | 100 to 1000 | < 10 | 100 to 1000 | – | – | –
COc1cc(NC(=O)Nc2cccc(CNC(=O)OCCCOC(C)=O)c2)ccc1-c1cnco1 [Compound 58] | 100 to 1000 | < 10 | 100 to 1000 | – | – | –
COc1cc(NC(=O)Nc2cccc(CNC(=O)OC(CC#N)CC#N)c2)ccc1-c1cnco1 [Compound 13] | 100 to 1000 | < 10 | 100 to 1000 | – | – | –
CC[C@H](CCC#N)OC(=O)NCc1cccc(NC(=O)Nc2ccc(-c3cnco3)c(OC)c2)c1 [Compound 83] | 100 to 1000 | 10 to 50 | 100 to 1000 | – | – | –
COc1cc(NC(=O)Nc2cccc(CNC(=O)O[C@@H](CC#N)CN3CCOCC3)c2)ccc1-c1cnco1 [Compound 20] | – | < 10 | – | 100 to 1000 | 100 to 1000 | –
CCC(CC#N)OC(=O)N[C@@H](C)c1cccc(NC(=O)Nc2ccc(-c3cnco3)c(OC)c2)c1 (stereo partly drawn) [Compound 181] | < 100 | < 10 | < 100 | – | – | –
CCN(CC)CCC(OC(=O)NCc1cccc(NC(=O)Nc2ccc(-c3cnco3)c(OC)c2)c1)C(F)(F)F (stereo not drawn) [Compound 37] | 100 to 1000 | < 10 | 100 to 1000 | – | – | –
COc1cc(NC(=O)Nc2cccc([C@H](C)NC(=O)O[C@H]3CCOC3)c2)ccc1C#N [Compound 185] | – | 10 to 50 | – | 100 to 1000 | 100 to 1000 | –
COc1cc(NC(=O)Nc2cccc(CNC(=O)O[C@@H]3CCN(S(=O)(=O)N(C)C)C3)c2)ccc1-c1cnco1 [Compound 77] | 100 to 1000 | < 10 | 100 to 1000 | – | – | –
CCC(CC#N)OC(=O)NCc1cccc(NC(=O)Nc2ccc(-c3cnco3)c(OC)c2)c1 (stereo not drawn) [Compound 27] | < 100 | < 10 | < 100 | – | – | –
COc1cc(NC(=O)Nc2cccc(CNC(=O)OCCN(C)CCC#N)c2)ccc1-c1cnco1 [Compound 3] | 100 to 1000 | < 10 | 100 to 1000 | – | – | –
CCCN(CCC(OC(=O)NCc1cccc(NC(=O)Nc2ccc(-c3cnco3)c(OC)c2)c1)c1ccccc1)CC1CC1 (stereo not drawn) [Compound 122] | > 1000 | > 50 | > 1000 | – | – | –
COc1cc(NC(=O)Nc2cccc(CNC(=O)OC[C@H](N)CC#N)c2)ccc1-c1cnco1 [Compound 9] | 100 to 1000 | < 10 | 100 to 1000 | – | – | –
CCC(CC#N)OC(=O)N[C@H](C)c1cccc(NC(=O)Nc2ccc(C#N)c(OC)c2)c1 (stereo partly drawn) [Compound 174] | – | – | – | > 1000 | 100 to 1000 | > 50
